Data on two compounds can be found in article PMC9811578 (Chemical Science, 2022).

For orientation: Papp means a coefficient for how fast a substance crosses the barrier. A high value points to fast passage.

Non-standard residues stand in square brackets, D forms with d. Residues, ends and D or L forms follow the SMILES beside them.

For data set [1] the following is noted: R. Strutt and coworkers; cited from earlier work.
Data set [2] can be described thus: Horizon-LBA. In kind it is in vitro ADME. The following applies: not told.
The nature of data set [3]: PAMPA. It is filed as in vitro ADME.

Turning to `Cn1c(=O)c2c(ncn2C)n(C)c1=O` [Caffeine], in data set [1], the “permeability coefficient (DIB of DOPC, UV detector)” value was 2.81 ± 0.0920 × 10^−4 cm s^−1.
Consider `COc1ccc(C[C@@H]2NC(=O)[C@@H](CC(C)C)NC(=O)[C@H](C(C)C)NC(=O)[C@H](CC(C)C)NC(=O)[C@@H](CC(C)C)NC(=O)[C@H]3CCCN3C2=O)cc1` [Peptide 1] (cyclo(LV[dL]Y(Me)[dP][dL])), for which the values for the Papp in data set [2] and in data set [3] were 300 ± 100 ×10⁻⁶ cm/s and 16.5 ± 0.9 ×10⁻⁶ cm/s, respectively.
